According to ChEMBL document CHEMBL5241112, “Insights into the recent progress in the medicinal chemistry of pyranopyrimidine analogs” (RSC Med Chem, 2022):
Converted amounts (≈) assume the structure as drawn.

Key:
Aspergillus fumigatus = test: microbe, parasite or virus in culture; format: functional; details: ATCC204305, dose 50 mg/ml, time 24 hrs, read-out: DIZ
Penicillium italicum = test: microbe, parasite or virus in culture; format: functional; details: CECT 2294, dose 50 mg/ml, time 24 hrs, read-out: DIZ
[1] = Antioxidant activity assessed as DPPH radical scavenging activity incubated for 20 mins by spectrophotometric analysis; format: functional; set-up: concentration or dose not given beside the values
Capra hircus [2] = species on record: Capra hircus; test: Inhibition of goat lens AR assessed as gibbs binding free energy
[3] = Antioxidant activity assessed as hydroxyl radical scavenging activity incubated for 5 mins by spectrophotometric analysis; format: functional; set-up: concentration or dose not given beside the values
Capra hircus [4] = species on record: Capra hircus; test: Inhibition of goat lens AR at 100 uM incubated for 10 mins in presence of NADPH by spectroscopic analysis
Serratia marcescens [5] = test: Antibacterial activity against Serratia marcescens assessed as diameter of inhibition zone by disc diffusion method; format: functional
Serratia marcescens [6] = test: Antibacterial activity against Serratia marcescens IMRU-70 assessed as diameter of inhibition zone incubated for 24 hrs by disc diffusion method; format: functional
Vibrio cholerae = test: Antibacterial activity against Vibrio cholerae MTCC 3906 assessed as bacterial growth inhibition by broth microdilution method; format: functional
Staphylococcus aureus [7] = test: Antibacterial activity against Staphylococcus aureus NCTC-7447 assessed as diameter of inhibition zone incubated for 24 hrs by disc diffusion method; format: functional
Proteus mirabilis = test: Antibacterial activity against Proteus mirabilis NTCC-289 assessed as diameter of inhibition zone incubated for 24 hrs by disc diffusion method; format: functional
Salmonella typhimurium = test: Antibacterial activity against Salmonella typhimurium MTCC 98 assessed as bacterial growth inhibition by broth microdilution method; format: functional, Salmonella enterica subsp. enterica serovar Typhimurium; details: Salmonella enterica
Staphylococcus aureus [8] = test: Antibacterial activity against Staphylococcus aureus assessed as inhibition of bacterial growth; format: functional
Bacillus subtilis [9] = test: Antibacterial activity against Bacillus subtilis ATCC 6633 assessed as diameter of inhibition zone incubated for 24 hrs by disc diffusion assay; format: functional
Bacillus cereus = test: Antibacterial activity against Bacillus cereus ATCC-14579 assessed as diameter of inhibition zone incubated for 24 hrs by disc diffusion method; format: functional
Bacillus subtilis [10] = test: Antibacterial activity against Bacillus subtilis ATCC 6633 assessed as inhibition of bacterial growth incubated for 24 hrs by broth macrodilution method; format: functional
HT-29 = test: Antiproliferative activity against human HT-29 cells assessed as reduction in cell viability by MTT assay; format: functional, cell-based
MDA-MB-231 = test: cells; details: Homo sapiens
PANC-1 = test: Antiproliferative activity against human PANC-1 cells assessed as reduction in cell viability by MTT assay; format: functional, cell-based
Aspergillus niger [11] = test: […] activity against Aspergillus niger assessed as […] by microdilution method; format: functional
Bacillus pumilus [12] = test: Antibacterial activity against Bacillus pumilus assessed as inhibition of bacterial growth at MIC by microdilution method; format: functional
Escherichia coli = test: Antibacterial activity against Escherichia coli assessed as inhibition of bacterial growth by microdilution method; format: functional
Enterobacter cloacae [13] = test: Antibacterial activity against Enterobacter cloacae assessed as minimum bactericidal concentration by microdilution method; format: functional
Aspergillus niger [14] = test: Antifungal activity against Aspergillus niger assessed as inhibition of fungal growth by microdilution method; format: functional
Enterococcus faecalis [15] = test: Antibacterial activity against […] assessed as inhibition of bacterial growth at MIC by microdilution method; format: functional
Candida albicans [16] = test: Antifungal activity against Candida albicans assessed as inhibition of fungal growth by microdilution method; format: functional
Enterobacter cloacae [17] = test: Antibacterial activity against Enterobacter cloacae assessed as inhibition of bacterial growth at MIC by microdilution method; format: functional
Candida albicans [18] = test: Antifungal activity against Candida albicans assessed as inhibition of fungal growth at MIC by microdilution method; format: functional
Enterobacter cloacae [19] = test: Antibacterial activity against Enterobacter cloacae assessed as inhibition of bacterial growth by microdilution method; format: functional
Candida albicans [20] = test: […] activity against Candida albicans assessed as […] by microdilution method; format: functional
Aspergillus niger [21] = test: Antifungal activity against Aspergillus niger assessed as inhibition of fungal growth at MIC by microdilution method; format: functional
Enterococcus faecalis [22] = test: Antibacterial activity against […] assessed as minimum bactericidal concentration by microdilution method; format: functional
Bacillus pumilus [23] = test: Antibacterial activity against Bacillus pumilus assessed as inhibition of bacterial growth by microdilution method; format: functional
Enterococcus faecalis [24] = test: Antibacterial activity against […] assessed as inhibition of bacterial growth by microdilution method; format: functional
Bacillus pumilus [25] = test: Antibacterial activity against Bacillus pumilus assessed as minimum bactericidal concentration by microdilution method; format: functional
[26] = Antioxidant activity assessed as trolox equivalent of ABTS radical scavenging activity and measured after 6 mins by UV-vis spectrophotometry; format: functional

**Q.** For `Clc1ccc(COC(Cn2ccnc2)c2ccc(Cl)cc2Cl)c(Cl)c1` (stereo unspecified) [MICONAZOLE NITRATE], which zone of inhibition at 50000 µg/mL (Aspergillus fumigatus) is on record?
**A.** Its zone of inhibition at 50000 µg/mL is 19 mm.

**Q.** What about the zone of inhibition at 50000 µg/mL (Penicillium italicum) of the same compound?
**A.** Its zone of inhibition at 50000 µg/mL is 17 mm.

**Q.** What does the source list for `Cc1nn(-c2ccccc2)c(Cl)c1C1c2[nH]c(=O)[nH]c(=O)c2Oc2c1c(=O)oc1ccccc21` (stereo unspecified)?
**A.** Activity [1]: 59.1%; deltaG (Capra hircus [2]): -10.4 kcal/mol; Activity [3]: 54.3%; inhibition (Capra hircus [4]): 60%

**Q.** Which “diameter of the inhibition zone (DIZ)” value (Serratia marcescens [5]) does the source give for `CC1(C)S[C@@H]2[C@H](NC(=O)[C@H](N)c3ccccc3)C(=O)N2[C@H]1C(=O)O` [AMPICILLIN] here?
**A.** Its value is 25 mm.

**Q.** What about the “diameter of the inhibition zone (DIZ)” value (Serratia marcescens [6]) of the same compound?
**A.** Its value is 25 mm.

**Q.** What about the MIC (Vibrio cholerae) of the same compound?
**A.** The MIC was 100 µg/mL (≈ 286 µM).

**Q.** And the “diameter of the inhibition zone (DIZ)” value (Staphylococcus aureus [7])?
**A.** Its value is 25 mm.

**Q.** And the “diameter of the inhibition zone (DIZ)” value (Proteus mirabilis)?
**A.** Its value is 25 mm.

**Q.** What about the MIC (Salmonella typhimurium) of the same compound?
**A.** The MIC was 100 µg/mL (≈ 286 µM).

**Q.** What about the MIC (Staphylococcus aureus [8]) of the same compound?
**A.** The MIC was 250 µg/mL (≈ 715 µM).

**Q.** What about the “diameter of the inhibition zone (DIZ)” value (Bacillus subtilis [9]) of the same compound?
**A.** The value was 32.4 mm.

**Q.** And the “diameter of the inhibition zone (DIZ)” value (Bacillus cereus)?
**A.** Its value is 25 mm.

**Q.** And the MIC (Bacillus subtilis [10])?
**A.** Its MIC is 0.45 µg/mL (≈ 1.29 µM).

**Q.** Which IC50 (HT-29) does the source give for `COc1cc([C@@H]2c3cc4c(cc3[C@@H](O[C@@H]3O[C@@H]5CO[C@@H](C)O[C@H]5[C@H](O)[C@H]3O)[C@H]3COC(=O)[C@H]23)OCO4)cc(OC)c1O` [ETOPOSIDE] here?
**A.** Its IC50 is 25.6 µM.

**Q.** And the IC50 (MDA-MB-231)?
**A.** Its IC50 is 30.6 µM.

**Q.** And the IC50 (PANC-1)?
**A.** The IC50 was 24.4 µM.

**Q.** With `CCOC(=O)C1=C(N)OC2C(C(=O)N(c3ccc(C)cc3)C(=S)N2c2ccc(C)cc2)C1c1ccccc1` (stereo unspecified) as the compound, how does the MBC (Aspergillus niger [11]) read?
**A.** Its MBC is 500 µg/mL (≈ 948 µM).

**Q.** What about the “inhibition (INH)” value (Bacillus pumilus [12]) of the same compound?
**A.** Its value is 66.4%.

**Q.** And the MIC (Escherichia coli)?
**A.** Its MIC is 15.6 µg/mL (≈ 29.6 µM).

**Q.** What about the MBC (Enterobacter cloacae [13]) of the same compound?
**A.** Its MBC is 62.5 µg/mL (≈ 118 µM).

**Q.** And the MIC (Aspergillus niger [14])?
**A.** Its MIC is 15.6 µg/mL.

**Q.** And the “inhibition (INH)” value (Enterococcus faecalis [15])?
**A.** The value was 69.5%.

**Q.** And the MIC (Candida albicans [16])?
**A.** Its MIC is 31.2 µg/mL.

**Q.** What about the “inhibition (INH)” value (Enterobacter cloacae [17]) of the same compound?
**A.** Its value is 29.2%.

**Q.** What about the “inhibition (INH)” value (Candida albicans [18]) of the same compound?
**A.** The value was 79.7%.

**Q.** What about the MIC (Enterobacter cloacae [19]) of the same compound?
**A.** The MIC was 62.5 µg/mL (≈ 118 µM).

**Q.** And the MBC (Candida albicans [20])?
**A.** Its MBC is 62.5 µg/mL (≈ 118 µM).

**Q.** And the “inhibition (INH)” value (Aspergillus niger [21])?
**A.** The value was 85.1%.

**Q.** What about the MBC (Enterococcus faecalis [22]) of the same compound?
**A.** Its MBC is 62.5 µg/mL (≈ 118 µM).

**Q.** What about the MIC (Bacillus pumilus [23]) of the same compound?
**A.** Its MIC is 31.2 µg/mL (≈ 59.1 µM).

**Q.** What about the MIC (Enterococcus faecalis [24]) of the same compound?
**A.** The MIC was 15.6 µg/mL (≈ 29.6 µM).

**Q.** What about the MBC (Bacillus pumilus [25]) of the same compound?
**A.** The MBC was 125 µg/mL (≈ 237 µM).

**Q.** Which Activity [26] does the source give for `CCOC(=O)C1=C(N)Oc2[nH]c(=O)[nH]c(=O)c2C1[C@H](O)[C@@H](O)[C@H](O[C@H]1O[C@H](CO)[C@@H](O)[C@H](O)[C@H]1O)[C@H](O)CO` (stereo partly specified) here?
**A.** The Activity was 5.24 µM.
